From ChEMBL document CHEMBL1932917, “4,5-dihydropyridazin-3-one derivatives as histamine H₃ receptor inverse agonists” (Bioorg Med Chem Lett, 2012)
pEC50, pIC50, pKi: −log10 of the molar value. Values belong to the molecule of their own block, whether it stands above or below them.

Tests used:
Histamine H3 receptor [1] = target: T1, Histamine H3 receptor (Homo sapiens, UniProt Q9Y5N1); test: Displacement of [3H]NAMH from human histamine H3 receptor expressed in CHO cells; type: cell-based
Histamine H3 receptor [2] = target: Histamine H3 receptor (Rattus norvegicus, UniProt Q9QYN8); test: Displacement of [3H]NAMH from rat histamine H3 receptor expressed in CHO cells; type: cell-based
Sequence of Histamine H3 receptor (Rattus norvegicus, UniProt Q9QYN8) (Q9QYN8 whole entry): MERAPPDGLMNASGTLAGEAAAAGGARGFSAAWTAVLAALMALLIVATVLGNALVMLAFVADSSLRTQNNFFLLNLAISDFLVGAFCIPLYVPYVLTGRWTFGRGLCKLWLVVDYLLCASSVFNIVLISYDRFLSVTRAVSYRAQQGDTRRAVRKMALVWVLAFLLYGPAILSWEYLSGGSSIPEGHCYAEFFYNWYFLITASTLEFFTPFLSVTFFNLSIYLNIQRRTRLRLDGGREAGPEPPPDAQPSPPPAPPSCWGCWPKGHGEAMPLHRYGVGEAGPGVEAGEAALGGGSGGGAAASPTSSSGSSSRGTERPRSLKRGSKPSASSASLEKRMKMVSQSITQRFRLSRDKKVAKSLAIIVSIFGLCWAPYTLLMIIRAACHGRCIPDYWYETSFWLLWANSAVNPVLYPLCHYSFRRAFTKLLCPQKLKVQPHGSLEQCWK

[3] = Ratio of drug level in brain to plasma in rat at 10 mg/kg, ip after 6 hrs; type: ADME, organism-based; design: dose 10 mg/kg, route intraperitoneal
Rattus norvegicus [4] = test: Inhibition of RAMH-induced dipsogenia in po dosed rat; type: functional
[5] = Plasma protein binding in rat; type: ADME, cell-free; conditions: read-out: PPB (converted)
[6] = Plasma protein binding in dog; type: ADME, cell-free, Canis lupus familiaris; conditions: read-out: PPB (converted)
[7] = Plasma protein binding in human; type: ADME, cell-free; conditions: read-out: PPB (converted)
Rattus norvegicus [8] = test: Effect on sleep-awake cycle in ip dosed EEG/EMG rat model assessed as wake promotion after 4 hrs relative to control; type: functional, organism-based
Rattus norvegicus [9] = test: Effect on sleep-awake cycle in EEG/EMG rat model assessed as wake promotion at 1 mg/kg, ip after 4 hrs (reference value: 80 +/- 5 mins); type: functional; conditions: route intraperitoneal
Rattus norvegicus [10] = test: Effect on sleep-awake cycle in EEG/EMG rat model assessed as wake promotion at 3 mg/kg, ip after 4 hrs (reference value: 80 +/- 5 mins); type: functional; conditions: route intraperitoneal
Rattus norvegicus [11] = test: Effect on sleep-awake cycle in EEG/EMG rat model assessed as wake promotion at 10 mg/kg, ip after 4 hrs (reference value: 80 +/- 5 mins); type: functional; conditions: route intraperitoneal
Rattus norvegicus [12] = test: Effect on sleep-awake cycle in EEG/EMG rat model assessed as wake promotion time at 10 mg/kg, ip after 3 hrs relative to control; type: functional; conditions: route intraperitoneal
Rattus norvegicus [13] = test: Effect on sleep-awake cycle in EEG/EMG rat model assessed as wake promotion time at 10 mg/kg, ip after 4 hrs relative to control; type: functional; conditions: route intraperitoneal
Rattus norvegicus [14] = test: Effect on sleep-awake cycle in EEG/EMG rat model assessed as wake promotion at 10 mg/kg, ip after 5 hrs relative to control; type: functional; conditions: route intraperitoneal
Rattus norvegicus [15] = test: Effect on sleep-awake cycle in EEG/EMG rat model assessed as wake promotion at 10 mg/kg, ip after 17 hrs relative to control; type: functional; conditions: route intraperitoneal
[16] = target: Histamine H1 receptor (Homo sapiens) (UniProt P35367); test: Inhibition human histamine H1 receptor at 10 uM
Sequence of Histamine H1 receptor (Homo sapiens) (P35367 whole entry): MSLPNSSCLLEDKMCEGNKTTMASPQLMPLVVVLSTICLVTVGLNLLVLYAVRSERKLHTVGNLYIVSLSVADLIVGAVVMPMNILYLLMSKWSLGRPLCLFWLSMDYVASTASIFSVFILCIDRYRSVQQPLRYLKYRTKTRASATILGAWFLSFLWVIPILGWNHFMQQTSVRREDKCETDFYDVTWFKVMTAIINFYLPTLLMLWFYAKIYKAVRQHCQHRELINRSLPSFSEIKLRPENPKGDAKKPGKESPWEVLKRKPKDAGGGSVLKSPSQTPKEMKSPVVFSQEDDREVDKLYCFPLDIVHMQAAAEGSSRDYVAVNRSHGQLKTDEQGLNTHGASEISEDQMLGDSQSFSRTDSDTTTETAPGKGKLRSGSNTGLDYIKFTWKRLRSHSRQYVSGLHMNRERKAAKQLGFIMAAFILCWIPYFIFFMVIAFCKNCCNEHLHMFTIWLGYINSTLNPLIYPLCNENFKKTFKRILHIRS

[17] = target: Histamine H2 receptor (Homo sapiens) (UniProt P25021); test: Inhibition human histamine H2 receptor at 10 uM
Sequence of Histamine H2 receptor (Homo sapiens) (P25021 whole entry): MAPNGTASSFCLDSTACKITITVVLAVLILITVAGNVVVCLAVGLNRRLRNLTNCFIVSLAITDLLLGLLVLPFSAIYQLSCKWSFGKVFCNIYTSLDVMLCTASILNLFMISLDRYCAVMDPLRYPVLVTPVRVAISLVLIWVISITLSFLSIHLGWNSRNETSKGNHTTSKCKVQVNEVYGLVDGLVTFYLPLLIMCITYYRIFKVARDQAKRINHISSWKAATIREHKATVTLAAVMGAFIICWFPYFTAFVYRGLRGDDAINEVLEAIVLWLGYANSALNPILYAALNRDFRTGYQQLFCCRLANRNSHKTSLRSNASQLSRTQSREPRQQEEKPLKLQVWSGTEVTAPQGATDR

[18] = target: Histamine H4 receptor (Homo sapiens) (UniProt Q9H3N8); test: Inhibition human histamine H4 receptor at 10 uM
Histamine H3 receptor [19] = target: T1, Histamine H3 receptor; test: Antagonist activity at human histamine H3 receptor by [35S]GTPgammaS binding assay; type: functional
Histamine H3 receptor [20] = target: T1, Histamine H3 receptor; test: Inverse agonist activity at human histamine H3 receptor by [35S]GTPgammaS binding assay; type: functional
[21] = Apparent permeability of the compound in human Caco2 cells; type: ADME, cell-based; conditions: Caco-2
[22] = Solubility of the compound in water at pH 2; type: physicochemical
[23] = Solubility of the compound in water at pH 7.4; type: physicochemical
[24] = Half life in mouse liver microsomes; type: ADME, Microsome
[25] = Half life in rat liver microsomes; type: ADME, Microsome
[26] = Half life in dog liver microsomes; type: ADME, Canis lupus familiaris, Microsome
[27] = Half life in monkey liver microsomes; type: ADME, Macaca mulatta, Microsome; conditions: rhesus monkey
[28] = Half life in human liver microsomes; type: ADME, Microsome
Cytochrome P450 1A2 = target: T2, Cytochrome P450 1A2 (Homo sapiens, UniProt P05177); test: Inhibition of CYP1A2; type: ADME
T2 sequence (P05177 whole entry): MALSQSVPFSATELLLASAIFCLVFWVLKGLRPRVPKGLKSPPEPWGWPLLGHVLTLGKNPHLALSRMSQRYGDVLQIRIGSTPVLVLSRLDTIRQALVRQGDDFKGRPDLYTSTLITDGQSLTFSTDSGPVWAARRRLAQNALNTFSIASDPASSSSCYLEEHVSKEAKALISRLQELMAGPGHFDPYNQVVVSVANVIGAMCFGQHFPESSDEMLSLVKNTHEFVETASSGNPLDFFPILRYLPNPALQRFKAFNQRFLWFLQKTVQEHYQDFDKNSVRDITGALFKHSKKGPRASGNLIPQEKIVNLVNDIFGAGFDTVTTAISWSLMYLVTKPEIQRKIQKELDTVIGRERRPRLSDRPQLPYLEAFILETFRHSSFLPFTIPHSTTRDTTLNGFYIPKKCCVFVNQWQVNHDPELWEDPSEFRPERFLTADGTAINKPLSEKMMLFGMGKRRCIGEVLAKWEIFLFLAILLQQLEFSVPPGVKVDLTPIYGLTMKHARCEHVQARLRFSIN

Cytochrome P450 2C9 = Cytochrome P450 2C9 (Homo sapiens, UniProt P11712); test: Inhibition of CYP2C9; type: ADME
Sequence of Cytochrome P450 2C9 (P11712 whole entry): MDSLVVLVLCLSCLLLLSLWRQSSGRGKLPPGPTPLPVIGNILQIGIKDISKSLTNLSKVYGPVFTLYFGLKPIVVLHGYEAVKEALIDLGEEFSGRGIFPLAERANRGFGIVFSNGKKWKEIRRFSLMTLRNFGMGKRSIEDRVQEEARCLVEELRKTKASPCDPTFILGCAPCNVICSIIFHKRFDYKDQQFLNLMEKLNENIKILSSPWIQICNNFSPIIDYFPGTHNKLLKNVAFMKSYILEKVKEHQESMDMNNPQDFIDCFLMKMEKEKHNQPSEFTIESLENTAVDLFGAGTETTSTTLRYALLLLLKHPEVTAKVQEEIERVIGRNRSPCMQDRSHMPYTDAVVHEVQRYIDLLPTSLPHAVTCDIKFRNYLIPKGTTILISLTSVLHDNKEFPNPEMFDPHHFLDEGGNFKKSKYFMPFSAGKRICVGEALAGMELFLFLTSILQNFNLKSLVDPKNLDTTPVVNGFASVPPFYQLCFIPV

Cytochrome P450 2C19 = Cytochrome P450 2C19 (Homo sapiens, UniProt P33261); test: Inhibition of CYP2C19; type: ADME
Sequence of Cytochrome P450 2C19 (P33261 whole entry): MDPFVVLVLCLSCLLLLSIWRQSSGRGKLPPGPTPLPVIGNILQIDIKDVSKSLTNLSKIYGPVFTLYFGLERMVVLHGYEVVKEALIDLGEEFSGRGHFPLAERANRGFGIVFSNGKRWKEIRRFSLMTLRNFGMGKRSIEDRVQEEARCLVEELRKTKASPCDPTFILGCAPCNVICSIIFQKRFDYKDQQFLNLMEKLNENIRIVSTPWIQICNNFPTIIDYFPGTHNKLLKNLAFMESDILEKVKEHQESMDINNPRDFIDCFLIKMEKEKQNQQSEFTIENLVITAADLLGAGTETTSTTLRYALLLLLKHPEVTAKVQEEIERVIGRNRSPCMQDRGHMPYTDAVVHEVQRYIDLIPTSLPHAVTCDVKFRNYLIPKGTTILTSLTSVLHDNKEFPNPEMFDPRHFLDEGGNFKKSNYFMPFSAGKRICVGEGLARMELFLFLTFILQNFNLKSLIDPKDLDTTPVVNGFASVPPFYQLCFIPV

Cytochrome P450 2D6 = Cytochrome P450 2D6 (Homo sapiens, UniProt P10635); test: Inhibition of CYP2D6; type: ADME
Sequence of Cytochrome P450 2D6 (P10635 whole entry): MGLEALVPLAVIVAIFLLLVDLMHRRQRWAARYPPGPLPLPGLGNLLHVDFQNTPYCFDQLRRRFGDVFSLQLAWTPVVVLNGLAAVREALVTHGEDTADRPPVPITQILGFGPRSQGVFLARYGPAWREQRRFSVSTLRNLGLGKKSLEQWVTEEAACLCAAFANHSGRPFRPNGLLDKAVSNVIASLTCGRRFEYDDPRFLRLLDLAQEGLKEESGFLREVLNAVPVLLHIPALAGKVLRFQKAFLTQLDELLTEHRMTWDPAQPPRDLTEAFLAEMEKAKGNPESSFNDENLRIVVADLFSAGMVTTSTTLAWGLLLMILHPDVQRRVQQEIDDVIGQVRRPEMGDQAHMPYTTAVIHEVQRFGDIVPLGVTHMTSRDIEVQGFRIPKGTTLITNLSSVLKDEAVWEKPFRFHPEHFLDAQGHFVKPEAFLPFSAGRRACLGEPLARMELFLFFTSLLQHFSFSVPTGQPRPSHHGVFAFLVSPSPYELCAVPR

Cytochrome P450 3A4 = Cytochrome P450 3A4 (Homo sapiens, UniProt P08684); test: Inhibition of CYP3A4; type: ADME
Sequence of Cytochrome P450 3A4 (P08684 whole entry): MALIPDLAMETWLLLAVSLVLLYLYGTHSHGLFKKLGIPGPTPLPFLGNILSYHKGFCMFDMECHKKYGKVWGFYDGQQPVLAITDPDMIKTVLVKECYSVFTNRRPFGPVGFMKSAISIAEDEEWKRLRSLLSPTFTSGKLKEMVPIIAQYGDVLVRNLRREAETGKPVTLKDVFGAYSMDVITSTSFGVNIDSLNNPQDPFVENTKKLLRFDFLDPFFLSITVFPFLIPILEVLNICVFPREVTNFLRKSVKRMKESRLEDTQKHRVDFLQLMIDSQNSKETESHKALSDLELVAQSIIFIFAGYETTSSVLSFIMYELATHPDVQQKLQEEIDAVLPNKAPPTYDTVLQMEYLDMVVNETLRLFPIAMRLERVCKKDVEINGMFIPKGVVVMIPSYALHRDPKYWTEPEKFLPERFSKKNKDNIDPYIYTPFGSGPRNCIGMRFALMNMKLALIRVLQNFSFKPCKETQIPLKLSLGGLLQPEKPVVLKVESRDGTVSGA

[29] = (§1) Half life in rat at 1 mg/kg, iv; type: ADME, organism-based; design: dose 1 mg/kg, route intravenous; conditions: in vivo
[30] = (§2) Volume of distribution in rat at 1 mg/kg, iv; type: ADME, organism-based; design: dose 1 mg/kg, route intravenous; conditions: in vivo
[31] = Clearance in rat at 1 mg/kg, iv; type: ADME, organism-based; design: dose 1 mg/kg, route intravenous; conditions: in vivo
[32] = (§3) AUC in rat at 5 mg/kg, po; type: ADME, organism-based, Plasma; design: dose 5 mg/kg, route oral; conditions: plasma
[33] = (§4) Cmax in rat at 5 mg/kg, po; type: ADME, organism-based; design: dose 5 mg/kg, route oral; conditions: in vivo
[34] = (§5) Oral bioavailability in rat at 5 mg/kg; type: ADME, organism-based; conditions: in vivo
[35] = Drug uptake in rat brain at 5 mg/kg, po after 6 hrs; type: ADME, organism-based; design: dose 5 mg/kg, route oral; conditions: read-out: Drug uptake
Rattus norvegicus [36] = test: as §1; type: ADME, organism-based; design: dose 1 mg/kg, route intravenous; conditions: in vivo
Rattus norvegicus [37] = test: as §2; type: ADME, organism-based; design: dose 1 mg/kg, route intravenous; conditions: in vivo
Rattus norvegicus [38] = test: as §3; type: ADME, organism-based, Plasma; design: dose 5 mg/kg, route oral; conditions: in vivo
Rattus norvegicus [39] = test: as §4; type: ADME, organism-based; design: dose 5 mg/kg, route oral; conditions: in vivo
Rattus norvegicus [40] = test: as §5; type: ADME, organism-based; conditions: in vivo

T1 sequence (Q9Y5N1 whole entry): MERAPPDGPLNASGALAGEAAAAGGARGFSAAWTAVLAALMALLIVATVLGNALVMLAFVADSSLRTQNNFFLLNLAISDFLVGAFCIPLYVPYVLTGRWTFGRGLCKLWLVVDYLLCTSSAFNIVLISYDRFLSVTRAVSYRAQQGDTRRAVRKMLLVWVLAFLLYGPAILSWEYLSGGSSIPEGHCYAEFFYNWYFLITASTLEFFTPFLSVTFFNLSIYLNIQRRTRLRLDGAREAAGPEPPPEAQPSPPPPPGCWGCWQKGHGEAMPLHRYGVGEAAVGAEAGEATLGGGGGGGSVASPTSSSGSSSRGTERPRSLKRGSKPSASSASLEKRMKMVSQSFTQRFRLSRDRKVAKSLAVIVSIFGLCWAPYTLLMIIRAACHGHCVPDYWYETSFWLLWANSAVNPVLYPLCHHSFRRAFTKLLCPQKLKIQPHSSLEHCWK

SMILES: O=C1CCC(c2ccc(OCCCN3CCCC3)cc2)=NN1
pKi (Histamine H3 receptor [1]): 7.13
pKi (Histamine H3 receptor [2]): 6.59

SMILES: CC1CC(=O)NN=C1c1ccc(OCCCN2CCCCC2)cc1 (racemic)
pKi (Histamine H3 receptor [1]): 7.68
pKi (Histamine H3 receptor [2]): 7.55

SMILES: O=C1CCC(c2ccc(OCCCN3CCCCC3)cc2)=NN1CC(F)(F)F
pKi (Histamine H3 receptor [1]): 7.42
pKi (Histamine H3 receptor [2]): 7.21

SMILES: CC1CC(=O)NN=C1c1ccc(OCCCN2CCC[C@H]2C)cc1 (stereo in doubt; 19a)
Kb (Histamine H3 receptor [19]): 0.68 nM

SMILES: CC1CC(=O)NN=C1c1ccc(OCCCN2CCC[C@H]2C)cc1 (single isomer, unassigned; isomer 2)
BPR ([3]; brain, 6 h): 1.9
pKi (Histamine H3 receptor [1]): 8.33
pKi (Histamine H3 receptor [2]): 7.70
pEC50 (Histamine H3 receptor [20]): 8.85
pIC50 (Cytochrome P450 1A2): < 4.52
pIC50 (Cytochrome P450 2C9): < 4.52
pIC50 (Cytochrome P450 2C19): < 4.52
pIC50 (Cytochrome P450 2D6): < 4.52
pIC50 (Cytochrome P450 3A4): < 4.52
t1/2 (Rattus norvegicus [36]): 90 min
Vd (Rattus norvegicus [37]): 3.4 L/kg
AUC (Rattus norvegicus [38]): 1327 ng·h/mL
Cmax (Rattus norvegicus [39]): 274 ng/mL
F (Rattus norvegicus [40]): 52%

Further lines, with some results ahead:

Kp at 6 h ([3]; brain/plasma, read-out: BPR): 2.4
fraction unbound [5]: 0.72
fraction unbound [6]: 0.84
fraction unbound [7]: 0.74
inhibition [16]: < 30%
inhibition [17]: < 30%
inhibition [18]: < 30%
Kb (Histamine H3 receptor [19]): 0.18 nM
pKi (Histamine H3 receptor [1]): 8.37
pKi (Histamine H3 receptor [2]): 7.89
pEC50 (Histamine H3 receptor [20]): 9.14
Papp [21]: 14 ×10⁻⁶ cm/s
solubility [22]: > 2000 µg/mL
solubility [23]: > 2000 µg/mL
half-life [24]: > 40 min
half-life [25]: > 40 min
half-life [26]: > 40 min
half-life [27]: > 40 min
half-life [28]: > 40 min
pIC50 (Cytochrome P450 1A2): < 4.52
pIC50 (Cytochrome P450 2C9): < 4.52
pIC50 (Cytochrome P450 2C19): < 4.52
pIC50 (Cytochrome P450 2D6): < 4.52
pIC50 (Cytochrome P450 3A4): < 4.52
half-life [29]: 114 min
Vd [30]: 4.7 L/kg
clearance [31]: 27 mL/min/kg
AUC [32]: 837 ng·h/mL
Cmax [33]: 189 ng/mL
bioavailability [34]: 38%
concentration at 6 h [35]: 900 nM
SMILES: C[C@@H]1CCCN1CCCOc1ccc(C2=NNC(=O)C(C)(C)C2)cc1
ED50 (Rattus norvegicus [4]): 0.16 mg/kg
inhibition (Rattus norvegicus [4]): Dose-dependent effect
Activity (Rattus norvegicus [8]): Dose-dependent effect
Activity (Rattus norvegicus [9]): 119 min
Activity (Rattus norvegicus [10]): 127 min
Activity (Rattus norvegicus [11]): 201 min
Activity (Rattus norvegicus [12]): 90%
Activity (Rattus norvegicus [13]): 150%
Activity (Rattus norvegicus [14]): 130 min
Activity (Rattus norvegicus [15]): 203 min

pKi (Histamine H3 receptor [1]): 8.70
pKi (Histamine H3 receptor [2]): 7.60
SMILES: C[C@@H]1CCCN1CCCOc1ccc(C2=NN(Cc3ccccc3)C(=O)CC2)cc1

pKi (Histamine H3 receptor [1]): 8.00
pKi (Histamine H3 receptor [2]): 7.80
SMILES: C[C@@H]1CCCN1CCCOc1ccc(C2=NN(c3ccccc3)C(=O)CC2)cc1

pKi (Histamine H3 receptor [1]): 8.30
pKi (Histamine H3 receptor [2]): 7.80
SMILES: C[C@@H]1CCCN1CCCOc1ccc(C2=NN(C)C(=O)CC2)cc1

pKi (Histamine H3 receptor [1]): 8.06
pKi (Histamine H3 receptor [2]): 7.38
SMILES: C[C@@H]1CCCN1CCCOc1ccc(C2=NNC(=O)C(c3ccccn3)C2)cc1 (mixture of isomers)

pKi (Histamine H3 receptor [1]): 8.05
pKi (Histamine H3 receptor [2]): 7.20
SMILES: CC(C)N1N=C(c2ccc(OCCCN3CCC[C@H]3C)cc2)CCC1=O
